According to ChEMBL document CHEMBL3044925, “Synthesis of piperazino and morpholino derivatives of aryloxypropane with potential analgesic and possible antimigraine activities” (Med Chem Res, 2011):

Tests used:
[1] = system: Mus musculus; test: […] activity in Mus musculus MFI (mouse) assessed as inhibition of PBQ-induced writhing at 100 mg/kg, ip administered 1.5 hr prior to PBQ-challenge measured after 10 min relative to control; type: functional; conditions: route intraperitoneal
[2] = system: Mus musculus; test: Neurotoxicity against Mus musculus MFI (mouse) assessed as irritability at 60 mg/kg, ip; type: toxicity, organism-based; set-up: dose 60 mg/kg, route intraperitoneal; conditions: in vivo
[3] = system: Mus musculus; test: Neurotoxicity against Mus musculus MFI (mouse) assessed as irritability at 120 mg/kg, ip; type: toxicity, organism-based; set-up: dose 120 mg/kg, route intraperitoneal; conditions: in vivo
[4] = system: Mus musculus; test: Neurotoxicity against Mus musculus MFI (mouse) assessed as epilepsy at 120 mg/kg, ip; type: toxicity, organism-based; set-up: dose 120 mg/kg, route intraperitoneal; conditions: in vivo
[5] = system: Mus musculus; test: Neurotoxicity against Mus musculus MFI (mouse) assessed as eye protrusion at 120 mg/kg, ip; type: toxicity, organism-based; set-up: dose 120 mg/kg, route intraperitoneal; conditions: in vivo
[6] = system: Mus musculus; test: […] activity in Mus musculus MFI (mouse) assessed as inhibition of PBQ-induced writhing at 60 mg/kg, ip administered 1.5 hr prior to PBQ-challenge measured after 10 min relative to aspirin; type: functional; conditions: route intraperitoneal
[7] = system: Mus musculus; test: Neurotoxicity against Mus musculus MFI (mouse) assessed as effect on respiration at 120 mg/kg, ip; type: toxicity, organism-based; set-up: dose 120 mg/kg, route intraperitoneal; conditions: in vivo
[8] = system: Mus musculus; test: Neurotoxicity against Mus musculus MFI (mouse) assessed as hair erection at 120 mg/kg, ip; type: toxicity, organism-based; set-up: dose 120 mg/kg, route intraperitoneal; conditions: in vivo
[9] = system: Mus musculus; test: Neurotoxicity against Mus musculus MFI (mouse) assessed as eye protrusion at 180 mg/kg, ip; type: toxicity, organism-based; set-up: dose 180 mg/kg, route intraperitoneal; conditions: in vivo
[10] = system: Mus musculus; test: […] activity in Mus musculus MFI (mouse) assessed as inhibition of PBQ-induced writhing at 120 mg/kg, ip administered 1.5 hr prior to PBQ-challenge measured after 10 min relative to aspirin; type: functional; conditions: route intraperitoneal
[11] = system: Mus musculus; test: Neurotoxicity against Mus musculus MFI (mouse) assessed as excitation at 60 mg/kg, ip; type: toxicity, organism-based; set-up: dose 60 mg/kg, route intraperitoneal; conditions: in vivo
[12] = system: Mus musculus; test: Neurotoxicity against Mus musculus MFI (mouse) assessed as effect on respiration at 60 mg/kg, ip; type: toxicity, organism-based; set-up: dose 60 mg/kg, route intraperitoneal; conditions: in vivo
[13] = system: Mus musculus; test: Neurotoxicity against Mus musculus MFI (mouse) assessed as epilepsy at 60 mg/kg, ip; type: toxicity, organism-based; set-up: dose 60 mg/kg, route intraperitoneal; conditions: in vivo
[14] = system: Mus musculus; test: Neurotoxicity against Mus musculus MFI (mouse) assessed as tail erection at 120 mg/kg, ip; type: toxicity, organism-based; set-up: dose 120 mg/kg, route intraperitoneal; conditions: in vivo
[15] = system: Mus musculus; test: Neurotoxicity against Mus musculus MFI (mouse) assessed as muscle twitching at 120 mg/kg, ip; type: toxicity, organism-based, Muscle tissue; set-up: dose 120 mg/kg, route intraperitoneal; conditions: in vivo
[16] = system: Mus musculus; test: Neurotoxicity against Mus musculus MFI (mouse) assessed as excitation at 120 mg/kg, ip; type: toxicity, organism-based; set-up: dose 120 mg/kg, route intraperitoneal; conditions: in vivo
[17] = system: Mus musculus; test: Neurotoxicity against Mus musculus MFI (mouse) assessed as muscle twitching at 180 mg/kg, ip; type: toxicity, organism-based, Muscle tissue; set-up: dose 180 mg/kg, route intraperitoneal; conditions: in vivo
[18] = system: Mus musculus; test: […] activity in Mus musculus MFI (mouse) assessed as inhibition of PBQ-induced writhing at 180 mg/kg, ip administered 1.5 hr prior to PBQ-challenge measured after 10 min relative to aspirin; type: functional; conditions: route intraperitoneal
[19] = system: Mus musculus; test: Neurotoxicity against Mus musculus MFI (mouse) assessed as tail erection at 180 mg/kg, ip; type: toxicity, organism-based; set-up: dose 180 mg/kg, route intraperitoneal; conditions: in vivo
[20] = system: Mus musculus; test: Neurotoxicity against Mus musculus MFI (mouse) assessed as tremors at 180 mg/kg, ip; type: toxicity, organism-based; set-up: dose 180 mg/kg, route intraperitoneal; conditions: in vivo
[21] = system: Mus musculus; test: Neurotoxicity against Mus musculus MFI (mouse) assessed as skeletal muscle incoordination at 180 mg/kg, ip; type: toxicity, organism-based, Muscle tissue; set-up: dose 180 mg/kg, route intraperitoneal; conditions: in vivo
[22] = system: Mus musculus; test: Neurotoxicity against Mus musculus MFI (mouse) assessed as epilepsy at 180 mg/kg, ip; type: toxicity, organism-based; set-up: dose 180 mg/kg, route intraperitoneal; conditions: in vivo
[23] = system: Mus musculus; test: Neurotoxicity against Mus musculus MFI (mouse) assessed as hair erection at 180 mg/kg, ip; type: toxicity, organism-based; set-up: dose 180 mg/kg, route intraperitoneal; conditions: in vivo
[24] = system: Mus musculus; test: Neurotoxicity against Mus musculus MFI (mouse) assessed as skeletal muscle incoordination at 120 mg/kg, ip; type: toxicity, organism-based, Muscle tissue; set-up: dose 120 mg/kg, route intraperitoneal; conditions: in vivo
[25] = system: Mus musculus; test: Neurotoxicity against Mus musculus MFI (mouse) assessed as irritability at 180 mg/kg, ip; type: toxicity, organism-based; set-up: dose 180 mg/kg, route intraperitoneal; conditions: in vivo
[26] = system: Mus musculus; test: Neurotoxicity against Mus musculus MFI (mouse) assessed as skeletal muscle incoordination at 60 mg/kg, ip; type: toxicity, organism-based, Muscle tissue; set-up: dose 60 mg/kg, route intraperitoneal; conditions: in vivo
[27] = system: Mus musculus; test: Neurotoxicity against Mus musculus MFI (mouse) assessed as hair erection at 60 mg/kg, ip; type: toxicity, organism-based; set-up: dose 60 mg/kg, route intraperitoneal; conditions: in vivo
[28] = system: Mus musculus; test: Neurotoxicity against Mus musculus MFI (mouse) assessed as muscle twitching at 60 mg/kg, ip; type: toxicity, organism-based, Muscle tissue; set-up: dose 60 mg/kg, route intraperitoneal; conditions: in vivo
[29] = system: Mus musculus; test: […] activity in ip dosed Mus musculus MFI (mouse) assessed as inhibition of PBQ-induced writhing administered 1.5 hr prior to PBQ-challenge measured after 10 min; type: functional; conditions: read-out: MED
[30] = system: Mus musculus; test: Neurotoxicity against Mus musculus MFI (mouse) assessed as tail erection at 60 mg/kg, ip; type: toxicity, organism-based; set-up: dose 60 mg/kg, route intraperitoneal; conditions: in vivo
[31] = system: Mus musculus; test: Neurotoxicity against Mus musculus MFI (mouse) assessed as tremors at 60 mg/kg, ip; type: toxicity, organism-based; set-up: dose 60 mg/kg, route intraperitoneal; conditions: in vivo
[32] = system: Mus musculus; test: Neurotoxicity against Mus musculus MFI (mouse) assessed as excitation at 180 mg/kg, ip; type: toxicity, organism-based; set-up: dose 180 mg/kg, route intraperitoneal; conditions: in vivo
[33] = system: Mus musculus; test: Neurotoxicity in ip dosed Mus musculus MFI (mouse); type: toxicity, organism-based; conditions: in vivo
[34] = system: Mus musculus; test: Neurotoxicity against Mus musculus MFI (mouse) assessed as eye protrusion at 60 mg/kg, ip; type: toxicity, organism-based; set-up: dose 60 mg/kg, route intraperitoneal; conditions: in vivo
[35] = system: Mus musculus; test: Neurotoxicity against Mus musculus MFI (mouse) assessed as effect on respiration at 180 mg/kg, ip; type: toxicity, organism-based; set-up: dose 180 mg/kg, route intraperitoneal; conditions: in vivo
[36] = system: Mus musculus; test: Neurotoxicity against Mus musculus MFI (mouse) assessed as tremors at 120 mg/kg, ip; type: toxicity, organism-based; set-up: dose 120 mg/kg, route intraperitoneal; conditions: in vivo

CC(=O)Oc1ccccc1C(=O)O [ASPIRIN]
inhibition in vivo at 100 mg/kg [1]: 100%

CC(COc1cccc(Cl)c1Cl)N1CCN(C)CC1.O=C(O)C(=O)O (racemic)
Activity [2]: Toxic | Activity [3]: Toxic | Activity [4]: Toxic | Activity [5]: Toxic | inhibition in vivo at 60 mg/kg [6]: 37.5% | Activity [7]: Toxic | Activity [8]: Toxic | Activity [9]: Toxic | inhibition in vivo at 120 mg/kg [10]: 75% | Activity [11]: Toxic | Activity [12]: Toxic | Activity [13]: Toxic | Activity [14]: Toxic | Activity [15]: Toxic | Activity [16]: Toxic | Activity [17]: Toxic | inhibition in vivo at 180 mg/kg [18]: 100% | Activity [19]: Toxic | Activity [20]: Toxic | Activity [21]: Toxic | Activity [22]: Toxic | Activity [23]: Toxic | Activity [24]: Toxic | Activity [25]: Toxic | Activity [26]: Toxic | Activity [27]: Toxic | Activity [28]: Toxic | minimal effective dose [29]: 60 mg/kg | Activity [30]: Toxic | Activity [31]: Toxic | Activity [32]: Toxic | MTC [33]: 120 mg/kg | Activity [34]: Toxic | Activity [35]: Toxic | Activity [36]: Toxic
